The source of these data is patent US9597312B2, “Treatment of cognitive disorders associated with abnormal dendritic spines using PKC activators” (Cognitive Research Enterprises, Inc., priority 2010, dated 2017).

Test [1] relates to squamous cell carcinoma and melanoma. Particulars: used topically; cited from earlier work.
For another test, the system named is synaptophysin. In words: Synaptophysin immunohistochemistry in hippocampus of aged rats. The test is classed as in vivo. As to the method:
Under anesthesia (choral hydrate; Sigma-Aldrich; 400 mg/kg body weight, i.p.), rats were perfused through the heart with PBS by gravity to wash out the blood and then lightly fixed with 150 ml of 4% paraformaldehyde in PBS at room temperature, instead of a cold fixative, because hypothermia can reduce the number of dendritic spines. Brains were removed and postfixed for 10 min. Thereafter, hippocampi were isolated from the right brain hemispheres, and dorsal hippocampi were sectioned with a vibratome at 400 μm for DiI staining and immunohistochemistry.
Hippocampal slices at 400 μm thickness were further immersed in the fixative (4% paraformaldehyde in PBS) for 30 min at room temperature and then sectioned at 35 μm thickness by using a vibratome. Sections were then processed for immunohistochemistry as described in Hongpaisan et al., J Neurosci., 2004, 24:10878-10887. […]
All data were quantified by using the ImageJ program. The appearance of spinophilin and synaptophysin profiles in a 63-μm×63-μm image taken from the superficial part of the stratum radiatum were analyzed with the photographic negative after background subtraction. The total number of spinophilin and synaptophysin granules were then counted by using ImageJ. […] HuC/D immunostaining was quantified by measuring fluorescence intensity in the proximal dendrite portion of each individual CA1 pyramidal neuron. […]

The test system of test [2] is mushroom-shaped dendritic spines. The note with it: rats; cited from earlier work.
The test system of test [3] is ischemia-induced deficits. Particulars: postischemic/hypoxic treatment; cited from earlier work.
The next test deals with hippocampal CA1 neurons. In words: DiI staining and confocal microscopy of dendritic spines of hippocampal CA1 neurons in Fragile X mice. The test is classed as in vivo. The note with it: Fragile X transgenic mice. As to the method: (§1) Non-treated groups received the same volume of vehicle at the same frequency of administration as the treated groups.
The tips of glass electrodes, prepared as used for electrophysiology, were immersed in 5% (wt/vol) 1, 1′-dioctadecyl-3,3,3′,3′-tetramathyl-indocarbocyanineperchlorate (DiI, Molecular Probes/Invitrogen) in dichloromethane (Sigma-Aldrich) and air-dried at room temperature for 30 min. The tips of DiI-coated electrodes were inserted, broken, and left in the strata oriens of the CA1 area of hippocampal sections at […] thickness. After maintenance in PBS at 4° C. overnight to allow DiI to diffuse in the plasma membrane of the CA1 neurons, hippocampal sections were then resectioned to 35 μm thickness and mounted on glass slides, using PBS as the mounting medium. Dendritic spines stained with DiI in the strata radiatum were collected using a Zeiss Axiovert 200M microscope equipped with 510 confocal scanning system at 568 nm/>510 nm (excitation/emission). A stack of confocal images (taken every 0.4 μm) was collected to obtain all dendritic spines of an individual dendritic shaft. During analysis, a stack of images was retrieved with the ImageJ program (National Institutes of Health). Individual spines identified on one image were also verified on adjacent stacked images to approximate the three-dimensional structure of this spine. Those spines, which had head diameters more than three times larger than the diameter of their necks (FIGS. 1 d and e), were identified as mushroom spines. Approximately four to six stacked image sets were obtained from each animal. All image sets were pooled and coded; therefore, images were identified with unknown animal number and unknown treatment (double-blind protocol).
(§2) The mice were then sacrificed and hippocampal sections were removed and treated as described in Example 2.

In the next test the test system is FMR1 mice. In words: Spatial water maze in Fragile X (FMR1) mice. Format: in vivo. Particulars: 20 μg/m^2 tail i.v., 2 doses/week for 13 weeks, vs FMR1 with vehicle p<0.001.
From the text: Two types of mice (male, The Jackson Laboratories, ME, USA; 9-10 per group) were used in the study: FVB.129P2-Fmrl^tmlCgr/J (FMR1) and FVB.129P2-Pde6b^+ Tyr^c-ch/AntJ (as the control groups).
as §1
The first training of spatial water maze task began on the 10th day after the last dose. Mice were trained for 8 days (2 trials/day) to find a hidden platform, centered in one of the quadrants and submerged about 2 cm below the water surface. At the start of all trials, mice were placed individually in the water facing the maze wall, using different starting positions each trial, and allowed to swim until they found the platform, where they remained for 20 s, before being returned to their home cages. […] The swim path was recorded with a video-tracking system, which computed latency to the platform, swim distance, and percentage of time spent in the quadrants. After the training trials, a probe trial (a quadrant test or retention trial) was performed with the platform removed to assess memory retention for its location by the distance the mouse moved in the quadrants. The video-tracking system tracked the animal's movements in each quadrant during a period of one minute. […]

A further test deals with hippocampal CA1 area. In words: Immunohistochemistry of synaptic markers (GAP-43, neurogranin, synaptophysin) in hippocampal CA1 area of Fragile X mice. Format: in vivo. As to the method:
as §1
Hippocampal slices at 400 μm thickness were further immersed in the fixative (4% paraformaldehyde in PBS) for 30 min at room temperature and then sectioned at 35 μm thickness by using a vibratome. Sections were then processed for immunohistochemistry as described in Hongpaisan et al., J Neurosci., 2004, 24:10878-10887. Tissue sections were incubated free-floating with primary antibodies against spinophilin (polyclonal IgG; 1:100; Upstate/Millipore), synaptophysin (monoclonal IgG; 1:2,000; Chemicon/Millipore), and/or HuC/D (monoclonal IgG; 1:100; Molecular Probes) at room temperature overnight. For a polyclonal antibody, tissue sections were incubated with Alexa Fluor 568 goat anti-rabbit IgG (1:200; Molecular Probes) for 3 h at room temperature. For monoclonal antibodies, sections were treated with a biotinylated secondary antibody (1:20; Vector Laboratories) for 3 h at room temperature and then with streptavidin conjugated with Alexa Fluor 488 (1:100; Molecular Probes) for 3 h at room temperature. Sections were mounted with […] mounting medium with DAPI to counterstain nuclei (Vector Laboratories) and imaged with the confocal microscope (512 pixels×512 pixels).
All data were quantified by using the ImageJ program. The appearance of spinophilin and synaptophysin profiles in a 63-μm×63-μm image taken from the superficial part of the stratum radiatum were analyzed with the photographic negative after background subtraction. The total number of spinophilin and synaptophysin granules were then counted by using ImageJ. Synaptophysin intensity was defined in the whole area of a 63-μm×63-μm image. HuC/D immunostaining was quantified by measuring fluorescence intensity in the proximal dendrite portion of each individual CA1 pyramidal neuron. The naive control data were set at 100%, and all other experiment data were defined as the percentage of their control.
as §2

Another test deals with Aβ(1-42). The note with it: transgenic mice with human AD genes; cited from earlier work.
The subject of test [4] is PKC. The note with it: K562 cells; cited from earlier work.
For test [5], the system named is cyclin dependent kinase 2 (Cdk2). Particulars: at 5 ng/ml; cited from earlier work.
In test [6] the test system is murine leukemias and solid tumors. The note with it: cited from earlier work.
Test [7] relates to PKC. Particulars: cited from earlier work.
The target of the next test is T1, PKCε (Homo sapiens, UniProt Q02156).
T1 sequence (Q02156 1-737): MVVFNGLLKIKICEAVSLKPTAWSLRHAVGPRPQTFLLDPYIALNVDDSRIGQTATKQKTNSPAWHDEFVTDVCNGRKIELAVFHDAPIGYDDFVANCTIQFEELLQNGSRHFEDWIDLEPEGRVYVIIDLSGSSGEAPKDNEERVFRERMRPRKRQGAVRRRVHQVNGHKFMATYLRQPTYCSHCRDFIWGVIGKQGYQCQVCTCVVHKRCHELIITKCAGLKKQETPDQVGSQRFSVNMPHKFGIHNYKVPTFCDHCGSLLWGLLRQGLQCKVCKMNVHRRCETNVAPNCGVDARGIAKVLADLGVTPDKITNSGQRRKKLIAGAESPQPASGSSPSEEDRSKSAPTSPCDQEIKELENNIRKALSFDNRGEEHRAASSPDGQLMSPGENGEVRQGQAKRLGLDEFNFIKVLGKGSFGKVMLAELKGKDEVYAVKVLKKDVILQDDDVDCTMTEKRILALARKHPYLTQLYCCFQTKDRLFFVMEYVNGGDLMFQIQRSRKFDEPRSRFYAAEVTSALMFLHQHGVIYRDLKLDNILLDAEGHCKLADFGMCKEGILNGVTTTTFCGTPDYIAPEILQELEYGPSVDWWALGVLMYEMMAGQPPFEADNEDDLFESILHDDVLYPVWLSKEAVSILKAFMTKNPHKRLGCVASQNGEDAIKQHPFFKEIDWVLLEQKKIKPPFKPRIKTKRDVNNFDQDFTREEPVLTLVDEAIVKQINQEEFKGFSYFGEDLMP
Particulars: cited from earlier work.

In the next test the target is protein kinase C. The note with it: specifically the (−)-enantiomer; read-out: EC50 (potency); cited from earlier work.
The subject of a further test is NCI 60 cell line screen. The note with it: cited from earlier work.

Structures are written as SMILES. pEC50: −log10 of the molar value.

Take `C/C=C(/C)C(=O)O[C@H]1C(C)=C[C@]23C(=O)[C@@H](C=C(CO)[C@@H](O)[C@]12O)[C@H]1[C@@H](C[C@H]3C)C1(C)C` [Ingenol-3-angelate]: the antitumor activity entry in [1] is recorded as “possesses antitumor activity”.

As for `CCC/C=C/C=C/C(=O)O[C@H]1/C(=C/C(=O)OC)C[C@H]2C[C@H]([C@@H](C)O)OC(=O)C[C@H](O)C[C@@H]3C[C@H](OC(C)=O)C(C)(C)[C@](O)(C[C@@H]4C/C(=C/C(=O)OC)C[C@H](/C=C/C(C)(C)[C@]1(O)O2)O4)O3` [Bryostatin 1, bryostatin-1], the “presence of synaptophysin (FIG. 3)” value in the test on synaptophysin is recorded as “increased”. The “number of mushroom-shaped dendritic spines” value in test [2] was “memory-specific increase”. Moreover, in test [3], the “ischemia-induced deficits in synaptogenesis, neurotrophic activity, and spatial learning and memory” value was “effectively rescued”. In the test with hippocampal CA1 neurons, the “filopodia number per 100 μm of dendritic shaft (FIG. 6)” value is recorded as “improved the transformation of filopodia to dendritic spines”; the “mushroom-shaped and total dendritic spines per 100 μm of dendritic shaft (FIG. 5)” value was “prevented the loss”; the “number and density of dendritic mushroom spines (FIG. 4)” value was “restored the number and density of dendritic mushroom spines to wild-type levels”. In the test with FMR1 mice, the “learning performance in water maze (FIG. 1)” value is reported as “significantly improved the learning performance”. In the test on hippocampal CA1 area (Fragile X transgenic mice), the “postsynaptic membrane density, neurogranin; number of synapses (FIG. 8)” value is on record as “can be restored”; the “presynaptic membrane density, GAP-43 (FIG. 7)” value is reported as “restored presynaptic membrane density in Fragile X transgenic mice to wild type levels”; the “presynaptic vesicle concentration, synaptophysin fluorescence intensity (FIG. 9)” value was “significantly restored, and even enhanced”. Further, the “number of presynaptic axonal boutons, synaptophysin grains (FIG. 9)” value with hippocampal CA1 area (across experimental conditions) was “No difference”. In the test with Aβ(1-42), the “Aβ(1-42) levels in the brains” value was “reduce”.

`C=C(C)[C@]12C[C@@H](COC(=O)c3ccccc3)[C@@]34OC5(O[C@@H]1[C@@H]3C1O[C@]1(CO)[C@@H](O)[C@@]1(O)[C@H]4[C@@H](C(C)CCCCCC[C@@H]5O)C(C)[C@@H]1OC(=O)c1ccccc1)O2` (some centres unmarked) [Gnidimacrin]: in the test with PKC [4], the “concentration at which it acts as a PKC activator” value is on record as about 3 nM. For the same compound, the “inhibition of Cdk2” value in test [5] is 100%. In test [6], the “concentrations of potent antitumor activity” value was 0.1 to 1 nM.

Turning to `CCCCCCCC(=O)O[C@H]1/C(=C/C(=O)OC)C[C@H]2C[C@H](CO)OC(=O)C[C@H](O)C[C@@H]3CCC[C@H](C[C@@H]4CCO[C@H](/C=C/C(C)(C)[C@]1(O)O2)O4)O3` [Analog 1], the “affinity for PKC (in words)” value in the test on PKC [7] is “high affinity for PKC”.

Turning to `CCCCCC1CC1CC1CC1CCCCCCCC(=O)O` (centres unmarked) [DCP-LA, 2-[(2-pentylcyclopropyl)methyl]cyclopropaneoctanoic acid], the “concentration of maximal effect on PKCε activation” value on PKCε is 100 nM.

What is called pEC50 is the EC50 on a negative log10 scale, so that one unit is a factor of ten. `CCCCCCCCc1ccc2c3c(c[nH]c13)C[C@@H](CO)NC(=O)[C@H](C(C)C)N2C` [octylindolactam V, Octylindolactam V]: on protein kinase C, the negative logarithm of the EC50 (pEC50) is 7.54.

Take `CC1=CC[C@H](C)C(C)(C)[C@@H]1/C=C/C(C)=C/CC[C@@]1(CO)[C@H](CCCO)/C(=C(/C)C=O)CC[C@]1(C)O` [Iripallidal]: in the test with NCI 60 cell line screen, the “GI50 (concentration required to inhibit growth by 50%)” value is recorded as “micromolar to nanomolar range”.
